Laboratory results published in the supplement of paper PMC10307832.

Legend:
Test in all cases: relative viability (nuclei count vs DMSO), 5 days (fraction); higher = more cells survive
GSK126 + Vorinostat = compound: CC[C@H](C)N1C=C(C2=C(C=C(C=C21)C3=CN=C(C=C3)N4CCNCC4)C(=O)NCC5=C(C=C(NC5=O)C)C)C [GSK126] + O=C(CCCCCCC(=O)Nc1ccccc1)NO [Vorinostat] (partner 1 µM)
How it was run: (§1)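 A single step with final 0.05% Triton X-100, 1% formaldehyde and 1 ug/ml Hoechst fixed the cells and stained nuclei 5 days after treatment. Lung cancer cell lines in 1536-well plates had been treated by pin tool the day after seeding with one drug alone or a fixed anchor-drug dose plus five library-drug doses (not always all listed) in √10 steps, and nuclei were counted on 4× images. Relative viability is the ratio of nuclei in treated wells to nuclei in vehicle wells, taken as the median of duplicate plates.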

Carboplatin + Olaparib = compound: C1CC(C1)(C(=O)O)C(=O)O.[NH2-].[NH2-].[Pt+2] [Carboplatin] + O=C(c1cc(Cc2n[nH]c(=O)c3ccccc23)ccc1F)N1CCN(C(=O)C2CC2)CC1 [Olaparib] (partner 8 µM)
How it was run: as §1

Carboplatin + Vorinostat = compound: C1CC(C1)(C(=O)O)C(=O)O.[NH2-].[NH2-].[Pt+2] [Carboplatin] + O=C(CCCCCCC(=O)Nc1ccccc1)NO [Vorinostat] (partner 1 µM)
How it was run: as §1

Carboplatin + AZD7762 = compound: C1CC(C1)(C(=O)O)C(=O)O.[NH2-].[NH2-].[Pt+2] [Carboplatin] + NC(=O)Nc1cc(-c2cccc(F)c2)sc1C(=O)N[C@H]1CCCNC1 [AZD7762] (partner 0.2 µM)
How it was run: as §1

| Cell Line | relative viability (GSK126 + Vorinostat; first compound 0.08 µM) | relative viability (GSK126 + Vorinostat; first compound 0.253 µM) | relative viability (GSK126 + Vorinostat; first compound 0.8 µM) | relative viability (GSK126 + Vorinostat; first compound 2.53 µM) | relative viability (GSK126 + Vorinostat; first compound 8 µM) | relative viability (Carboplatin + Olaparib; first compound 0.08 µM) | relative viability (Carboplatin + Olaparib; first compound 0.253 µM) | relative viability (Carboplatin + Olaparib; first compound 0.8 µM) | relative viability (Carboplatin + Olaparib; first compound 2.53 µM) | relative viability (Carboplatin + Olaparib; first compound 8 µM) | relative viability (Carboplatin + Vorinostat; first compound 0.08 µM) | relative viability (Carboplatin + Vorinostat; first compound 0.253 µM) | relative viability (Carboplatin + Vorinostat; first compound 0.8 µM) | relative viability (Carboplatin + Vorinostat; first compound 2.53 µM) | relative viability (Carboplatin + Vorinostat; first compound 8 µM) | relative viability (Carboplatin + AZD7762; first compound 0.08 µM) | relative viability (Carboplatin + AZD7762; first compound 0.253 µM) | relative viability (Carboplatin + AZD7762; first compound 0.8 µM) | relative viability (Carboplatin + AZD7762; first compound 2.53 µM) | relative viability (Carboplatin + AZD7762; first compound 8 µM) |
| --- | --- | --- | --- | --- | --- | --- | --- | --- | --- | --- | --- | --- | --- | --- | --- | --- | --- | --- | --- | --- |
| LK-2 | 0.239 | 0.233 | 0.411 | 0.279 | 0.298 | 0.743 | 0.702 | 0.726 | 0.65 | 0.844 | 0.154 | 0.299 | 0.273 | 0.306 | 0.31 | 0.712 | 0.582 | 0.341 | 0.412 | 0.497 |
| CAL-12T | 0.852 | 0.814 | 0.614 | 0.777 | 0.9 | 0.727 | 0.783 | 0.673 | 0.741 | 0.648 | 0.606 | 0.768 | 0.733 | 0.802 | 0.891 | 0.848 | 0.579 | 0.674 | 0.555 | 0.548 |
| NCI-H322M | 0.838 | 0.884 | 0.866 | 0.939 | 0.939 | 0.761 | 0.818 | 0.779 | 0.686 | 0.65 | 0.994 | 0.855 | 0.928 | 0.91 | 0.709 | 0.598 | 0.548 | 0.553 | 0.547 | 0.428 |
| NCI-H2126 | 0.867 | 0.789 | 0.829 | 0.805 | 0.783 | 0.936 | 0.959 | 0.903 | 0.915 | 0.763 | 0.804 | 0.894 | 0.832 | 0.823 | 0.856 | 0.972 | 1.06 | 1.05 | 1.03 | 0.931 |
| NCI-H596 | 0.613 | 0.55 | 0.746 | 0.577 | 0.502 | 0.6 | 0.617 | 0.623 | 0.601 | 0.585 | 0.669 | 0.654 | 0.509 | 0.368 | 0.467 | 1.25 | 1.18 | 1.09 | 0.885 | 0.693 |
| LU99A | 0.506 | 0.484 | 0.443 | 0.404 | 0.561 | 0.296 | 0.272 | 0.253 | 0.236 | 0.214 | 0.507 | 0.577 | 0.485 | 0.418 | 0.292 | 0.425 | 0.405 | 0.349 | 0.243 | 0.196 |
| NCI-H1666 | 1.15 | 1 | 0.912 | 0.978 | 1.11 | 0.741 | 0.704 | 0.707 | 0.672 | 0.657 | 1.09 | 0.966 | 1.04 | 0.921 | 0.665 | 0.973 | 0.916 | 0.811 | 0.779 | 0.831 |
